Results from patent publication US10676468B2, “N-(3-heteroarylaryl)-4-arylarylcarboxamides and analogs as hedgehog pathway inhibitors and use thereof” (IMPACT Therapeutics, Inc., priority 2012, dated 2020).

How the values were obtained:
Format in all cases: cell-based, mouse
[1] = test system: Hedgehog Signaling Pathway; test: Gli-Luc reporter gene cell assay in C3H10T1/2/Gli-Luc cells stimulated with Shh; conditions: 30 nM Shh, luciferase activity (RLU), read-out: IC50 values of compounds that inhibit Hh pathway
In short: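 IC50 from nonlinear fit of luciferase RLU versus log compound concentration. Stably transfected C3H10T1/2/Gli-Luc cells received a 7-point compound series alongside Shh (30 nM in the added medium) for 24 h at 37 °C in DMEM/10% FBS, then were lysed for luciferase readout.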

[2] = test system: Hedgehog Signaling Pathway; test: SAG-induced differentiation of C3H10T1/2 cells into osteoblastic cells, intracellular alkaline phosphatase activity; conditions: 1 μM SAG, 5 days, alkaline phosphatase activity (OD405), read-out: IC50 values of compounds that inhibit Hh pathway
In short: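 Mouse C3H10T1/2 cells were induced with SAG and exposed to compound (10 μM to 1 nM) for 5 days at 37 °C. Cells were lysed in 0.2% Triton, and alkaline phosphatase activity was read as OD405 over 30 min at 37 °C in pH 9.8 substrate buffer. IC50 came from a non-linear fit of background-subtracted OD405 against log concentration.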

[3] = test system: Hedgehog Signaling Pathway; test: SHH-induced differentiation of C3H10T1/2 cells into osteoblastic cells, intracellular alkaline phosphatase activity; conditions: 10 nM SHH-N, 5 days, alkaline phosphatase activity (OD405), read-out: IC50 values of compounds that inhibit Hh pathway
In short: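 Hedgehog pathway inhibition was taken as loss of SHH-driven osteoblastic differentiation. Test compound (10 nM–10 μM) plus SHH-N (10 nM) was applied to C3H10T1/2 cells for 5 days, then lysate phosphatase turnover was measured as the 30-min OD405 change at 37 °C. IC50 was fitted from activity versus log dose.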

[4] = Mus musculus, C3H 10T1/2, 120 h

| IC50 ([1]; Mus musculus, C3H 10T1/2, 24 h) | IC50 [2, 4] | IC50 [3, 4] | IC50 ([1]; 24 hours) | IC50 [2] | IC50 [3] | SMILES |
| --- | --- | --- | --- | --- | --- | --- |
| 0.26 nM | 15 nM | 0.33 nM | – | – | – | Cc1c(C(=O)Nc2ccc(Cl)c(-c3ncc(-c4ccco4)[nH]3)c2)ccc(N2C[C@@H](C)N(C)[C@@H](C)C2)c1F [Example 148, N-(3-(5-(furan-2-yl)-1H-imidazol-2-yl)-4-chlorophenyl)-2-methyl-3-fluoro-4-((3S,5R)-3,4,5-trimethylpiperazin-1-yl)benzamide] |
| 0.28 nM | 15 nM | 0.27 nM | – | – | – | C[C@@H]1CN(c2cc(Cl)c(C(=O)Nc3ccc(Cl)c(-c4ncc(-c5ccco5)[nH]4)c3)cc2F)C[C@H](C)N1C [Example 149, N-(3-(5-(furan-2-yl)-1H-imidazol-2-yl)-4-chlorophenyl)-2-chloro-5-fluoro-4-((3S,5R)-3,4,5-trimethylpiperazin-1-yl)benzamide] |
| 8.7 nM | 280 nM | 34 nM | – | – | – | C[C@@H]1CN(c2ccc(C(=O)Nc3ccc(Cl)c(-c4ncc(-c5nccs5)[nH]4)c3)c(Cl)c2)C[C@H](C)N1C [Example 153, N-(3-(5-(thiazol-2-yl)-1H-imidazol-2-yl)-4-chlorophenyl)-2-chloro-4-((3S,5R)-3,4,5-trimethylpiperazin-1-yl)benzamide] |
| 6.7 nM | 178 nM | 22 nM | – | – | – | Cc1cc(N2C[C@@H](C)N(C)[C@@H](C)C2)ccc1C(=O)Nc1ccc(Cl)c(-c2ncc(-c3nccs3)[nH]2)c1 [Example 154, N-(3-(5-(thiazol-2-yl)-1H-imidazol-2-yl)-4-chlorophenyl)-2-methyl-4-((3S,5R)-3,4,5-trimethylpiperazin-1-yl)benzamide] |
| 0.22 nM | 13 nM | 0.11 nM | – | – | – | C[C@@H]1CN(c2ccc(C(=O)Nc3ccc(Cl)c(-c4ncc(-c5cccs5)[nH]4)c3)c(C(F)(F)F)c2)C[C@H](C)N1C [Example 155, N-(3-(5-(thiophen-2-yl)-1H-imidazol-2-yl)-4-chlorophenyl)-2-(trifluoro-methyl)-4-((3S,5R)-3,4,5-trimethylpiperazin-1-yl)benzamide] |
| 0.21 nM | 7 nM | 0.2 nM | – | – | – | Cc1c(C(=O)Nc2ccc(Cl)c(-c3ncc(-c4cccs4)[nH]3)c2)ccc(N2C[C@@H](C)N(C)[C@@H](C)C2)c1F [Example 156, N-(3-(5-(thiophen-2-yl)-1H-imidazol-2-yl)-4-chlorophenyl)-2-methyl-3-fluoro-4-((3S,5R)-3,4,5-trimethylpiperazin-1-yl)benzamide] |
| 0.23 nM | 10 nM | 0.15 nM | – | – | – | C[C@@H]1CN(c2cc(Cl)c(C(=O)Nc3ccc(Cl)c(-c4ncc(-c5cccs5)[nH]4)c3)cc2F)C[C@H](C)N1C [Example 157, N-(3-(5-(thiophen-2-yl)-1H-imidazol-2-yl)-4-chlorophenyl)-2-chloro-5-fluoro-4-((3S,5R)-3,4,5-trimethylpiperazin-1-yl)benzamide] |
| 0.3 nM | 8.2 nM | 0.42 nM | – | – | – | CCN1[C@H](C)CN(c2ccc(C(=O)Nc3ccc(Cl)c(-c4ncc(-c5cccs5)[nH]4)c3)c(Cl)c2)C[C@@H]1C [Example 158, N-(3-(5-(thiophen-2-yl)-1H-imidazol-2-yl)-4-chlorophenyl)-2-chloro-4-((3S,5R)-4-ethyl-3,5-dimethylpiperazin-1-yl)benzamide] |
| 0.31 nM | 10 nM | 0.36 nM | – | – | – | CC(C)N1[C@H](C)CN(c2ccc(C(=O)Nc3ccc(Cl)c(-c4ncc(-c5cccs5)[nH]4)c3)c(Cl)c2)C[C@@H]1C [Example 159, N-(3-(5-(thiophen-2-yl)-1H-imidazol-2-yl)-4-chlorophenyl)-2-chloro-4-((3S,5R)-4-isopropyl-3,5-dimethylpiperazin-1-yl)benzamide] |
| 6.5 nM | 66 nM | > 10000 nM | – | – | – | CS(=O)(=O)c1ccc(C(=O)Nc2ccc(Cl)c(-c3ncc(-c4cccs4)[nH]3)c2)c(Cl)c1 [Example 160, N-(3-(5-(thiophen-2-yl)-1H-imidazol-2-yl)-4-chlorophenyl)-2-chloro-4-(methylsulfonyl)benzamide] |
| 11 nM | 347 nM | 47 nM | – | – | – | Cc1cc(N2C[C@@H](C)N(C)[C@@H](C)C2)ccc1C(=O)Nc1ccc(Cl)c(-c2ncc[nH]2)c1 [Example 166, N-(3-(1H-imidazol-2-yl)-4-chlorophenyl)-2-methyl-4-((3S,5R)-3,4,5-trimethylpiperazin-1-yl)benzamide] |
| 0.22 nM | 30 nM | 0.22 nM | – | – | – | Cc1cc(N2C[C@@H](C)N(C)[C@@H](C)C2)ccc1C(=O)Nc1ccc(Cl)c(-c2ncc(C(C)C)[nH]2)c1 [Example 170, N-(3-(5-isopropyl-1H-imidazol-2-yl)-4-chlorophenyl)-2-methyl-4-((3S,5R)-3,4,5-trimethylpiperazin-1-yl)benzamide] |
| 17 nM | 127 nM | 45 nM | – | – | – | CCCc1cnc(-c2cc(NC(=O)c3ccc(N4C[C@@H](C)N(C)[C@@H](C)C4)cc3C)ccc2Cl)[nH]1 [Example 172, N-(3-(5-propyl-1H-imidazol-2-yl)-4-chlorophenyl)-2-methyl-4-((3S,5R)-3,4,5-trimethylpiperazin-1-yl)benzamide] |
| – | – | – | 15 nM | 165 nM | 60 nM | CCCc1cnc(-c2cc(NC(=O)c3ccc(N4C[C@@H](C)N(C)[C@@H](C)C4)cc3Cl)ccc2Cl)[nH]1 [Example 173] |
| 5.7 nM | 91 nM | 11 nM | – | – | – | Cc1cc(N2C[C@@H](C)N(C)[C@@H](C)C2)ccc1C(=O)Nc1ccc(Cl)c(-c2ncc(C(C)(C)C)[nH]2)c1 [Example 174, N-(3-(5-tert-butyl-1H-imidazol-2-yl)-4-chlorophenyl)-2-methyl-4-((3S,5R)-3,4,5-trimethylpiperazin-1-yl)benzamide] |
| 7.6 nM | 176 nM | 6.1 nM | – | – | – | C[C@@H]1CN(c2ccc(C(=O)Nc3ccc(Cl)c(-c4ncc(C(C)(C)C)[nH]4)c3)c(Cl)c2)C[C@H](C)N1C [Example 175, N-(3-(5-tert-butyl-1H-imidazol-2-yl)-4-chlorophenyl)-2-chloro-4-((3S,5R)-3,4,5-trimethylpiperazin-1-yl)benzamide] |
| 0.97 nM | 7.2 nM | 3.9 nM | – | – | – | C[C@@H]1CN(c2ccc(C(=O)Nc3ccc(Cl)c(-c4ncc(C5CC5)[nH]4)c3)c(Cl)c2)C[C@H](C)N1C [Example 176, N-(3-(5-cyclopropyl-1H-imidazol-2-yl)-4-chlorophenyl)-2-chloro-4-((3S,5R)-3,4,5-trimethylpiperazin-1-yl)benzamide] |
| 0.67 nM | 23 nM | 1 nM | – | – | – | Cc1cc(N2C[C@@H](C)N(C)[C@@H](C)C2)ccc1C(=O)Nc1ccc(Cl)c(-c2ncc(C3CC3)[nH]2)c1 [Example 177, N-(3-(5-cyclopropyl-1H-imidazol-2-yl)-4-chlorophenyl)-2-methyl-4-((3S,5R)-3,4,5-trimethylpiperazin-1-yl)benzamide] |
| 1 nM | 26 nM | 0.3 nM | – | – | – | C[C@@H]1CN(c2ccc(C(=O)Nc3ccc(Cl)c(-c4ncc(C5CC5)[nH]4)c3)c(C(F)(F)F)c2)C[C@H](C)N1C [Example 178, N-(3-(5-cyclopropyl-1H-imidazol-2-yl)-4-chlorophenyl)-2-(trifluoro-methyl)-4-((3S,5R)-3,4,5-trimethylpiperazin-1-yl)benzamide] |
| 0.43 nM | 21 nM | 0.39 nM | – | – | – | Cc1c(C(=O)Nc2ccc(Cl)c(-c3ncc(C4CC4)[nH]3)c2)ccc(N2C[C@@H](C)N(C)[C@@H](C)C2)c1F [Example 179, N-(3-(5-cyclopropyl-1H-imidazol-2-yl)-4-chlorophenyl)-2-methyl-3-fluoro-4-((3S,5R)-3,4,5-trimethylpiperazin-1-yl)benzamide] |
| 2.4 nM | 47 nM | 9.9 nM | – | – | – | C[C@@H]1CN(c2ccc(C(=O)Nc3ccc(Cl)c(-c4ncc(C5CCC5)[nH]4)c3)c(Cl)c2)C[C@H](C)N1C [Example 180, N-(3-(5-cyclobutyl-1H-imidazol-2-yl)-4-chlorophenyl)-2-chloro-4-((3S,5R)-3,4,5-trimethylpiperazin-1-yl)benzamide] |
| 3.2 nM | 70 nM | 19 nM | – | – | – | Cc1cc(N2C[C@@H](C)N(C)[C@@H](C)C2)ccc1C(=O)Nc1ccc(Cl)c(-c2ncc(C3CCC3)[nH]2)c1 [Example 181, N-(3-(5-cyclobutyl-1H-imidazol-2-yl)-4-chlorophenyl)-2-methyl-4-((3S,5R)-3,4,5-trimethylpiperazin-1-yl)benzamide] |
| 4.5 nM | 100 nM | 9 nM | – | – | – | C[C@@H]1CN(c2ccc(C(=O)Nc3ccc(Cl)c(-c4ncc(C5CCCC5)[nH]4)c3)c(Cl)c2)C[C@H](C)N1C [Example 182, N-(3-(5-cyclopentyl-1H-imidazol-2-yl)-4-chlorophenyl)-2-chloro-4-((3S,5R)-3,4,5-trimethylpiperazin-1-yl)benzamide] |
